In PubChem BioAssay (NCI):
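Where inhibition never reached the appropriate level, the endpoint shown equals the highest concentration tested. Otherwise, values were interpolated linearly from a five-concentration, 48-hour dose response in 96-well plates. TGI denotes the concentration required for complete inhibition of growth.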 Where a SMILES comes first, the peptide text is derived from it. [ ]: non-standard residue; d: D form. The star is where a group is joined. ξ: configuration not given here. NMeY = CN[C@@H](Cc1ccc(O)cc1)C(=O)O; Cbz = O=C(OCc1ccccc1)*; ξA = CC(N)C(=O)O

Assays:
Assay in all cases: NCI tumour cell line growth inhibition, 48 h
A549 NSCLC = test system: A549 NSCLC
CAKI-1 renal = test system: CAKI-1 renal
MOLT-4 leukemia = test system: MOLT-4 leukemia
TK-10 renal = test system: TK-10 renal
MDA-MB-435 = test system: MDA-MB-435
HCT-116 colon = test system: HCT-116 colon
SF-539 CNS = test system: SF-539 CNS
CCRF-CEM leukemia = test system: CCRF-CEM leukemia
SK-MEL-5 melanoma = test system: SK-MEL-5 melanoma
786-0 renal = test system: 786-0 renal
T-47D breast = test system: T-47D breast

Structure (SMILES) | TGI (A549 NSCLC) [µM] | TGI (CAKI-1 renal) [µM] | TGI (MOLT-4 leukemia) [µM] | TGI (TK-10 renal) [µM] | TGI (MDA-MB-435) [µM] | TGI (HCT-116 colon) [µM] | TGI (SF-539 CNS) [µM] | TGI (CCRF-CEM leukemia) [µM] | TGI (SK-MEL-5 melanoma) [µM] | TGI (786-0 renal) [µM] | TGI (T-47D breast) [µM]
C=C1N(C)c2ccc(S(=O)(=O)c3ccc4c(c3)C(C)(C)C(=C)N4C)cc2C1(C)C | > 100 | > 100 | 91.7 | > 100 | > 100 | > 100 | > 100 | > 100 | 43.6 | > 100 | > 100
COc1ccc(C[C@H]2COC(=O)[C@@H]2Cc2ccc(Br)cc2)cc1OC | > 100 | > 84 | 61.8 | > 94.2 | 55.7 | > 89.7 | > 100 | > 100 | 17.2 | > 100 | > 100
COc1ccc(C[C@@H](C(=O)N[C@@H](C)C(N)=O)N(C)C(=O)[C@@H]2CCCN2C(=O)[C@H](CC(C)C)NC(=O)C(C)NC(=O)OCc2ccccc2)cc1 (stereo partly drawn) (Cbz-[ξA]LP[NMeY](Me)A-NH2) | > 100 | > 100 | > 100 | > 100 | > 100 | > 100 | > 100 | > 100 | > 100 | > 100 | > 100
COc1ccc2nc3ccc(OC)cc3c(S(=O)Cc3ccccc3)c2c1 (stereo not drawn) | 37.3 | 25.6 | > 23.6 | 19.4 | 27.8 | 6.3 | 27.2 | > 22.1 | 30.5 | 4.78 | 4.87
O=C(Nc1ccccc1)OCCN=c1c2ccccc2ccc2ccccc12 | > 100 | 90.6 | 42.6 | > 100 | 79.6 | 35.9 | 37 | 50.4 | 31.2 | > 100 | 43.5
O=c1[nH][nH]c(=O)n1Cc1ccccc1 | > 100 | > 100 | > 100 | > 100 | > 100 | > 100 | > 100 | > 100 | > 100 | > 100 | > 100
COc1ccc2nc3c4c(nccc4c2c1)-c1ncccc1C3=O | 0.338 | 1.83 | 5.31 | 0.613 | 0.148 | 0.467 | 0.56 | 2.57 | 0.111 | 0.208 | 4.81
CCCCCCCCCCCCCCCCCCN(C)CC(COC)OP(=O)([O-])OCC[N+](C)(C)C (stereo not drawn) | 7.69 | 5.27 | 11 | 3.06 | 17.4 | 11.8 | 13 | 5.16 | 23.7 | 2.57 | 32.7
CC(C)=CCC/C(C)=C/Cc1c2c(c3oc(-c4ccc(O)c(O)c4)c(O)c(=O)c3c1O)C=CC(C)(C)O2 | 12.4 | 5.55 | 8.98 | 11.2 | 12.6 | 8.56 | 7 | 8.82 | 9.86 | 7.92 | 7.39
COc1ccc(COCC[C@H](C)OC2OC(CO[Si](C)(C)C(C)(C)C)C(O)C(O)C2O)cc1 (stereo partly drawn) | > 100 | > 100 | > 100 | > 100 | > 100 | > 100 | > 100 | > 100 | > 100 | > 100 | > 100
COc1ccc2nc3cccc([N+](=O)[O-])c3c(NCCC(=O)O)c2c1 | > 10 | > 10 | > 10 | > 10 | > 10 | > 10 | > 10 | > 10 | > 10 | > 10 | > 10
Cc1csc2nc(-c3cc([N+](=O)[O-])c(Cl)cc3Cl)c(/C=N/N=C(N)N)n12 | 40.9 | 29.8 | 18.8 | 32.4 | 34.7 | 39.5 | 35.1 | > 100 | 30.9 | 49.3 | 33.1
Cn1c2ncccc2n2c(=O)cc(O)cc12 | > 100 | > 100 | 60.1 | > 100 | > 100 | > 100 | > 100 | > 100 | > 100 | > 100 | 95.7
CCCCCCC(=O)OC[n+]1ccc(-c2c(COC(=O)NC(C)C)c(COC(=O)NC(C)C)c3n2CCC3)cc1 | > 100 | 99.4 | > 94.3 | > 100 | > 100 | > 100 | > 100 | > 88 | > 100 | > 100 | > 100
CCOC(=O)/C(=C\c1c[nH]c2ccccc12)P(=O)(OCC)OCC | > 100 | > 100 | > 100 | > 100 | > 100 | > 100 | 43.6 | 66.9 | > 100 | 99.6 | > 100
CC(C)N(C(C)C)S(=O)(=O)CC12CCC(C/C1=N\O)C2 (stereo not drawn) | > 100 | > 100 | > 100 | > 100 | > 100 | > 100 | > 100 | > 100 | > 100 | > 100 | > 100
Cc1cc(-c2nc3cc(F)ccc3s2)ccc1N | > 100 | > 94 | > 100 | > 4.64 | > 100 | > 91 | 46.1 | > 100 | > 82.3 | > 79.4 | > 100
O=C(c1ccccc1)c1ccc(N2C(=O)/C(=C/c3ccccc3S)N=C2c2ccccc2)c(N2C(=O)/C(=C/c3ccccc3S)N=C2c2ccccc2)c1 | > 100 | > 100 | 56.6 | > 100 | 46.1 | > 100 | 40.3 | > 100 | 87.6 | > 100 | > 100
